Assay results from patent US20250368647A1, “NITROGEN CONTAINING CONDENSED 2,3-DIHYDROQUINAZOLINONE COMPOUNDS AS NAV1.8 INHIBITORS” (GLAXOSMITHKLINE INTELLECTUAL PROPERTY DEVELOPMENT LIMITED, priority 2022, published 2025).

Biological target: human Nav1.8 (Homo sapiens (Human), UniProt Q9Y5Y9)
Test: QPatch 48 HTX voltage-clamp electrophysiology, half inactivation state (V1/2) protocol, HEK293-Nav1.8 cells
Type: cell-based
Details: HEK293 cells expressing human Nav1.8, human Navβ1 and human TREK1, P2 current
Outline: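 HEK293 cells co-expressing Navβ1 and TREK1 were voltage-clamped from −100 mV: a 20 ms step to 0 mV, 8 s inactivation at −46 mV, 20 ms at −100 mV, then a 20 ms P2 test step to 0 mV, repeated every 15 s. P2 current was normalized to vehicle and full block, corrected for run-down, and Hill-fitted (4–6 concentrations) for IC50.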

human Nav1.8, sequence (Q9Y5Y9 whole entry): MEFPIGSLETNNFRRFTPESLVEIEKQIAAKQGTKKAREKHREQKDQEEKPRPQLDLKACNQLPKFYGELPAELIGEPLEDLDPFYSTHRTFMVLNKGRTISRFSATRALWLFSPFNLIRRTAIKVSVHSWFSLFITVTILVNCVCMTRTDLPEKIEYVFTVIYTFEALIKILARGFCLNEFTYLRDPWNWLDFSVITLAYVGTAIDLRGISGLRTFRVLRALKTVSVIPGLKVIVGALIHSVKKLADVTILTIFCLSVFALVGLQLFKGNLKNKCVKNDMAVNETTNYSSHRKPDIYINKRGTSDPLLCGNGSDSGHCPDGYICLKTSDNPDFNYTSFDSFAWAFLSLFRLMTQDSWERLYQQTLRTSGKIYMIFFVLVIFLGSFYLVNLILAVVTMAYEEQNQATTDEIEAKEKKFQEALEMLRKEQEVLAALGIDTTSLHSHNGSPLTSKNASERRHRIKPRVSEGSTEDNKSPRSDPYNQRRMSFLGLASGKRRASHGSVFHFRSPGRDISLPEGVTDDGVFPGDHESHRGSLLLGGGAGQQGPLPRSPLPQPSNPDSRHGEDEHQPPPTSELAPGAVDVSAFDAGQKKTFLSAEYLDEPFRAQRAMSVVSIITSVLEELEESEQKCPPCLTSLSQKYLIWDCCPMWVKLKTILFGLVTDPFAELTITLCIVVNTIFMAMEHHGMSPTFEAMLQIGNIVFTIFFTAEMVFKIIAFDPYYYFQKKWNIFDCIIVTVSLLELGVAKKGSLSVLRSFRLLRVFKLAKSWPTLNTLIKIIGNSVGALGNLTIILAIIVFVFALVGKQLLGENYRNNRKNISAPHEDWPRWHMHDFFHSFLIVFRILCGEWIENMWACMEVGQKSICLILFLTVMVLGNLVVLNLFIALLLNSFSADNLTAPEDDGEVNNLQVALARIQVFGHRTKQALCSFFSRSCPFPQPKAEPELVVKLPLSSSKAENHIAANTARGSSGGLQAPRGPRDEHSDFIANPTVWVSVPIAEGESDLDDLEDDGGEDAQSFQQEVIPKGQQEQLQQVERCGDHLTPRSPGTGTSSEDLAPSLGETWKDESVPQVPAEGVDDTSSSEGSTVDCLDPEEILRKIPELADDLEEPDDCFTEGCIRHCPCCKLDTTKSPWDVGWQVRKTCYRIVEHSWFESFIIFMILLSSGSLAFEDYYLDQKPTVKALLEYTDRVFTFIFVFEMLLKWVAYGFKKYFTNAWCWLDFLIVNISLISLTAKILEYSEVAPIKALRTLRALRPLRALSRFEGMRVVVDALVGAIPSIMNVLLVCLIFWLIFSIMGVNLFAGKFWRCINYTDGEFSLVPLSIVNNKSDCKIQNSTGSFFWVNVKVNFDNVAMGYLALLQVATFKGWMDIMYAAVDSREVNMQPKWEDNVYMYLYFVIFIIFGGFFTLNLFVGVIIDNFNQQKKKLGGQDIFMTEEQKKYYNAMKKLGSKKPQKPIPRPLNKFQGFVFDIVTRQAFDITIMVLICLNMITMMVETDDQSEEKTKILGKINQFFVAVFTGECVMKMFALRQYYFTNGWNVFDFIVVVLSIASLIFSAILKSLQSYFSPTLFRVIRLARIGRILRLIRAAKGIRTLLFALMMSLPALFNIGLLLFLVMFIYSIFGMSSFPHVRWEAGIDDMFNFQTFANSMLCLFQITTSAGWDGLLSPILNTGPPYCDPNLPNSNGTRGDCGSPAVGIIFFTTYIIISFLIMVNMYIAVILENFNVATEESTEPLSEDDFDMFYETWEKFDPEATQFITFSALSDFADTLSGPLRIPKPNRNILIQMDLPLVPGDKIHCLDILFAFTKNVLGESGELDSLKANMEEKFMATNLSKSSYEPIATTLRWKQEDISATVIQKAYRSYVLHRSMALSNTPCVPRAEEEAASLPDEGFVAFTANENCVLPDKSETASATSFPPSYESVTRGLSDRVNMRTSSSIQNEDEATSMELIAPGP
human Nav1.8, sequence (Q07699 19-218 partner): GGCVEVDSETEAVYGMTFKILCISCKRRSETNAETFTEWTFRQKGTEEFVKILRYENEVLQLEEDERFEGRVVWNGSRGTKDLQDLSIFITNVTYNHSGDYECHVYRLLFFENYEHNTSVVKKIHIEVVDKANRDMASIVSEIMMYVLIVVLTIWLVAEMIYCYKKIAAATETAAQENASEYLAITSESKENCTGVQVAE

In order of rising “Nav1.8, pIC50” value:
1. O=C1c2cc(C(F)(F)F)cnc2N2CN1c1ccc(=O)[nH]c1NCCCc1cc(F)ccc12 [Example 34, 8-Fluoro-2-(trifluoromethyl)-10,11,12,13-tetrahydro-19H-5,18-methanodibenzo[i]dipyrido[2,3,-b:3′,2′-f][1,4,8]triazacyclotridecine-15,19(14H)-dione]  6.4
2. O=C1c2cc(C(F)(F)F)ccc2N2CN1c1ccc(=O)[nH]c1CNCCc1cc(F)ccc12 [Example 103, 8-Fluoro-2-(trifluoromethyl)-10,11,12,13-tetrahydro-19H-5,18-methanodibenzo[b,l]pyrido[3,2-f][1,5,9]triazacyclotridecine-15,19(14H)-dione]  6.4
3. CN1CCCc2[nH]c(=O)ccc2N2CN(c3cc(F)c(F)cc3C2=O)c2ccc(F)c(Cl)c2C1.Cl [Example 113, 3^3-Chloro-2^6,2^7,3^4-trifluoro-5-methyl-1^1,1^2,2^1,2^2,2^3,2^4-hexahydro-5-aza-2(3,1)-quinazolina-1(5,6)-pyridina-3(1,2)-benzenacyclooctaphane-1^2,2^4-dione hydrochloride]  6.9
4. O=C1c2cc(C(F)(F)F)ncc2N2CN1c1ccc(=O)[nH]c1CCCCCc1cc(F)ccc12 [Example 21, 3^4-Fluoro-2^6-(trifluoromethyl)-1^1,1^2,2^1,2^2,2^3,2^4-hexahydro-2(3,1)-pyrido[3,4-d]pyrimidina-1(5,6)-pyridina-3(1,2)-benzenacyclooctaphane-1^2,2^4-dione]  7.6
5. Cl.O=C1c2cc(Cl)c(F)cc2N2CN1c1ccc(=O)[nH]c1NCCCc1c2ccc(F)c1F [Example 101, 2-Chloro-3,8,9-trifluoro-10,11,12,13-tetrahydro-19H-5,18-methanodibenzo[f,i]pyrido[2,3-b]-[1,4,8]triazacyclotridecine-15,19(14H)-dione, hydrochloride]  7.8
6. Cl.O=C1c2cc(F)c(C(F)(F)F)cc2N2CN1c1ccc(=O)[nH]c1CNCCCc1cc(F)ccc12 [Example 105, 2^6,3^4-Difluoro-2^7-(trifluoromethyl)-1^1,1^2,2^1,2^2,2^3,2^4-hexahydro-7-aza-2(3,1)-quinazolina-1(5,6)-pyridina-3(1,2)-benzenacyclooctaphane-1^2,2^4-dione hydrochloride]  7.8
7. O=C1c2cc(F)c(Cl)cc2N2CN1c1ccc(=O)[nH]c1CCNCc1c2ccc(F)c1F [Example 50, 3-Chloro-2,8,9-trifluoro-10,11,12,13-tetrahydro-19H-5,18-methanodibenzo-[c,f]pyrido[3,2-j][1,5,9]triazacyclotridecine-15,19(14H)-dione]  8
8. Cl.O=C1c2cc(F)c(C(F)(F)F)cc2N2CN1c1ccc(=O)[nH]c1CCNCc1c2ccc(F)c1F [Example 48, 2,8,9-Trifluoro-3-(trifluoromethyl)-10,11,12,13-tetrahydro-19H-5,18-methanodibenzo[c,f]pyrido[3,2-j][1,5,9]triazacyclotridecine-15,19(14H)-dione hydrochloride]  8.1
9. O=C1c2cc(F)c(C(F)(F)F)cc2N2CN1c1ccc(=O)[nH]c1CCNCc1cc(F)ccc12 [Example 44, 2,8-Difluoro-3-(trifluoromethyl)-10,11,12,13-tetrahydro-19H-5,18-methanodibenzo[c,f]pyrido[3,2-i][1,5,9]triazacyclotridecine-15,19(14H)-dione]  8.6
10. Cl.O=C1c2cc(Cl)c(C(F)(F)F)cc2N2CN1c1ccc(=O)[nH]c1CCNCc1c2ccc(F)c1F [Example 60, 2-Chloro-8,9-difluoro-3-(trifluoromethyl)-10,11,12,13-tetrahydro-19H-5,18-methanodibenzo[c,f]pyrido[3,2-j][1,5,9]triazacyclotridecine-15,19(14H)-dione hydrochloride]  8.8
11. O=C1c2cc(F)c(C(F)(F)F)cc2N2CN1c1ccc(=O)[nH]c1CCNCc1c2ccc(F)c1Cl [Example 58, 9-Chloro-2,8-difluoro-3-(trifluoromethyl)-10,11,12,13-tetrahydro-19H-5,18-methano-dibenzo[c,f]pyrido[3,2-j][1,5,9]triazacyclotridecine-15,19(14H)-dione]  8.9
